Reference: US8501943B2, “Sodium salt of 5-cyclopropyl-2-{[2-(2,6-difluorophenyl)pyrimidin-5-yl]amino}benzoic acid as DHODH inhibitor” (Almirall, S.A., priority 2009, dated 2013)
Structures can show the parent of a compound that is named as a salt.

How the values were obtained:
Type in all cases: physicochemical
[1] = Crystallisation tests of salts with pharmaceutically acceptable bases; details: for Solid form obtained: salt crystallisation tests
Text: Crystallisation tests of salts of 5-cyclopropyl-2-{[2-(2,6-difluorophenyl)pyrimidin-5-yl]amino}benzoic acid with a broad range of pharmaceutically acceptable bases (comprising among others ammonia, L-arginine, choline, lysine, magnesium methoxide, meglumine, potassium methoxide and sodium hydroxide) in a range of different pharmaceutically acceptable solvents (including among others acetone, acetonitrile, ethyl acetate, chloroform, N,N-dimethylformamide, ethanol, isopropanol, nitromethane, dimethyl carbonate, methanol, methyl tert-butyl ether, tetrahydrofurane, diisopropyl ether, cyclohexane, butanol, water, 3-pentanone, toluene, chlorobenzene and isobutyl acetate) have been undertaken.
The salts from L-arginine, choline, magnesium methoxide and potassium methoxide were crystalline but hygroscopic. Additionally, some of said salts have different polymorphic phases.

[2] = Dynamic Vapour Sorption (DVS) profile; details: 25° C.
Procedure: Dynamic Vapour Sorption (DVS) profiles were obtained using an Igasorp Hiden Isochema instrument (serial number IGA-SA-066). After an initial stabilization period, at least two isotherms (at 25° C.) were obtained for each sample: a moisture sorption from 0 to 95% relative humidity and moisture desorption from 95% relative humidity to dryness. Both isotherms were performed in 10% humidity steps, with a minimum time of 10 minutes and a maximum time of 30 minutes for each step.
FIG. 2 illustrates the DVS pattern of the sodium salt of 5-cyclopropyl-2-{[2-(2,6-difluorophenyl)pyrimidin-5-yl]amino}benzoic acid. Mass increase was measured at 80% (0.7% increase) and 90% (4.2% increase) relative humidity (RH).

[3] = Differential scanning calorimetry (DSC) thermogram; details: heated 30 to 350° C. at 10° C./min
Procedure: The differential scanning calorimetry (DSC) thermograms analyses were obtained using a DSC-821 Mettler-Toledo instrument, serial number 5117423874. Samples were weighed into an aluminium pan, an aluminium lid placed on top of the sample and compressed with a brass rod. Samples were equilibrated at 30° C. and heated at 10° C./min to 350° C. The instrument was calibrated using indium and zinc standards.
FIG. 1 illustrates the DSC thermogram of the sodium salt of 5-cyclopropyl-2-{[2-(2,6-difluorophenyl)pyrimidin-5-yl]amino}benzoic acid.

Water-solubility test = details: 25° C. (room temperature), expressed as acid
Procedure: The solubility of Example 1 in water at room temperature was determined together with the solubility of the corresponding free acids.

| SMILES | Hygroscopicity / deliquescence of the salt [1] | Solid form obtained [1] | other results |
| --- | --- | --- | --- |
| O=C([O-])c1cc(C2CC2)ccc1Nc1cnc(-c2c(F)cccc2F)nc1.[K+] [salt from potassium methoxide] | hygroscopic | crystalline |  |
| C[N+](C)(C)CCO.O=C([O-])c1cc(C2CC2)ccc1Nc1cnc(-c2c(F)cccc2F)nc1 [salt from choline] | hygroscopic | crystalline |  |
| O=C(O)c1cc(C2CC2)ccc1Nc1cnc(-c2c(F)cccc2F)nc1 [Ex. 1, 5-cyclopropyl-2-{[2-(2,6-difluorophenyl)pyrimidin-5-yl]amino}benzoic acid, sodium salt] | neither hygroscopic nor deliquescent |  | Mass increase (DVS) ([2]; 80% relative humidity): 0.7%; Mass increase (DVS) ([2]; 90% relative humidity): 4.2%; Hygroscopicity according to DVS ([2]; sorption 0 to 95% RH): not hygroscopic; Hysteresis in DVS sorption/desorption ([2]; sorption/desorption isotherms): no hysteresis; Thermal stability (decomposition) by DSC [3]: does not suffer any decomposition at low-medium temperatures; Water Solubility @ 25° C. (mg/mL as acid) (Water-solubility test; sodium salt): 1.87 mg/mL |
| CNCC(O)C(O)C(O)C(O)CO.O=C(O)c1cc(C2CC2)ccc1Nc1cnc(-c2c(F)cccc2F)nc1 [salt from meglumine] |  | either oils or amorphous solids |  |
| O=C(O)c1cc(C2CC2)ccc1Nc1cnc(-c2c(F)cccc2F)nc1 [Example C1, 5-cyclopropyl-2-{[2-(2,6-difluorophenyl)pyrimidin-5-yl]amino}benzoic acid] |  |  | Water Solubility @ 25° C. (mg/mL as acid) (Water-solubility test): 0.03 mg/mL |
| N=C(N)NCCCC(N)C(=O)O.O=C(O)c1cc(C2CC2)ccc1Nc1cnc(-c2c(F)cccc2F)nc1 [salt from L-arginine] | hygroscopic | crystalline |  |
| NCCCCC(N)C(=O)O.O=C(O)c1cc(C2CC2)ccc1Nc1cnc(-c2c(F)cccc2F)nc1 [salt from lysine] |  | either oils or amorphous solids |  |
